Results: patent publication US20100209407A1, “MC-1R, MC-2R, AND/OR MU OPIOID RECEPTORS MODULATION” (BASF BEAUTY CARE SOLUTIONS FRANCE S.A.S., priority 2007, published 2010)

Key:
Type in all cases: cell-based, human
MC-1R [1] = experiment: MC-1R mRNA expression by quantitative RT-PCR in keratinocytes put in contact with actives; conditions: mRNA relative to actin, multiple of untreated control, 24 hours, 1% plant extracts and biotechnological hydrolysates, 0.01% characterized molecules
From the text: (§1) In particular, the extracts are obtained by macerating plants (preferably roots, rhizomes, stems, bark, flowers, fruits, seeds, germs, or leaves) at 1-10% (p/p), usually 1-5% in a solvent or a mixture of solvents, usually a mixture of water and alcohol, glycol, or polyol (such as ethanol, glycerol, butylene glycol and other glycols, xylitol, etc.) 100/0 to 0/100, and preferably in water. The extracts obtained are then filtered or distilled in order to recover the soluble portion, which is then filtered, preferably at 0.45 μm. Biotechnological hydrolysates are obtained via the fermentation of plant extracts in the presence of microorganisms usually from the family of lactic bacteria, in particular bactobacillus plantarum, or paracasei, and bifidobacterium, in particular longum or Saccharomyces. These hydrolysates are then filtered, preferably to 0.45 μm, in order to obtain the active components. […]
(§2) The parameters of amplification have usually been the following: The technique of RT-PCR in real time is conducted with the “Quanti Ted SYBR Green RT-PCR” kit (Qiagen, France) on wells containing mRNA, in an OPTICON thermocycler, which carries out cycles of amplification. […] At the end of each cycle, fluorescence, which is proportional to the number of fragments amplified, is read. […]

MC-2R [2] = experiment: MC-2R mRNA expression by quantitative RT-PCR in keratinocytes put in contact with actives; conditions: mRNA relative to actin, multiple of untreated control, 24 hours, 1% plant extracts and biotechnological hydrolysates, 0.01% characterized molecules
From the text: as §1, §2

μ opioid R [3] = experiment: μ opioid R mRNA expression by quantitative RT-PCR in keratinocytes put in contact with actives; conditions: mRNA relative to actin, multiple of untreated control, 24 hours, 1% plant extracts and biotechnological hydrolysates, 0.01% characterized molecules
From the text: as §1, §2

POMC [4] = experiment: POMC mRNA expression by quantitative RT-PCR in keratinocytes put in contact with actives; conditions: mRNA relative to actin, multiple of untreated control, 24 hours, 1% plant extracts and biotechnological hydrolysates, 0.01% characterized molecules
From the text: as §1, §2

MC-2R [5] = experiment: Detection of MC-2R protein in keratinocytes after action of active components (electrophoresis, immunodetection, image analysis); conditions: semi-quantification via image analysis, multiple of control
Method: (§3) The cells were cultivated at 37° C. in an atmosphere of 5% CO2 in the K-SFM environment K-SFM (Invitrogen) containing BPF (25 mg), EGF (2.5 μg), and normocin.
(§4) The cells were washed once with PBS solution, and the proteins were extracted at 30 min at 4° C. in lysis solution (Tris 50 mM, NaCl 250 mM, pH 7.5, 1% triton), in the presence of protease inhibitors. The lysates were centrifuged for 15 minutes at 13,000 g. The floaters are diluted with Laemmli solution in the presence of beta mercaptoethanol before electrophoresis.
(§5) For immunodetection, the proteins are separated via electrophoresis in 4-12% SDS-polyacrylamide gel. The proteins were transferred onto a nitrocellulose membrane (Biorad). The membranes are then saturated for one hour at ambient temperature in TBS solution with 3% BSA. The proteins are finally immunodetected after incubation of the primary antibody at 4° C. all night, followed by the secondary antibody coupled with Alexa 488 (invitrogen), 1 hour at ambient temperature.
(§6) The antibodies were used in the following dilution: 5 μg/mL anti-MC-1R, 5 μg/mL anti-MC-2R, and 1/1000 anti-μ opioid R.
(§7) Semi-quantification was carried out via image analysis. The actives are the following and are the subject of table IV.

μ opioid receptor = experiment: Detection of μ opioid receptor protein in keratinocytes after action of active components (electrophoresis, immunodetection, image analysis); conditions: semi-quantification via image analysis, multiple of control
Method: as §3, §4, §5, §6, §7

MC-1R [6] = experiment: MC-1R mRNA expression by quantitative RT-PCR in melanocytes put in contact with actives; conditions: mRNA relative to actin, multiple of untreated control, 24 hours, same conditions as Example 3
μ opioid R [7] = experiment: μ opioid R mRNA expression by quantitative RT-PCR in melanocytes put in contact with actives; conditions: mRNA relative to actin, multiple of untreated control, 24 hours, same conditions as Example 3
POMC [8] = experiment: POMC mRNA expression by quantitative RT-PCR in melanocytes put in contact with actives; conditions: mRNA relative to actin, multiple of untreated control, 24 hours, same conditions as Example 3
Method: The active components are tested for keratinocytes after dissolution in the culturing environment: usually between 0.1% and 2% (v/v) for plants and biotechnological hydrolysates and in particular from 0.5% to 1% and usually between 0.001% and 0.01% for characterized molecules. The present results are obtained with 1% in the culturing environment for plant extracts and biotechnological hydrolysates, and with 0.01% for characterized molecules.
After the contact time of the actives with the cells, for example 24 hours, the environments are eliminated and the cells conserved, for example by freeze-drying at −80° C. after a rinsing with 7.4 pH phosphate solution. The total RNA is extracted, for example, using a 96-well extraction kit on silica columns and divided onto a 96-well spectrophotometer at 260 nm (purity indicator: dosage of proteins at 280 nm). The RNA is diluted, for example at 5 ng/μl. […]
as §2

| Compound | MC-1R Control X: (MC-1R [1]) [Control X] | MC-2R Control X: (MC-2R [2]) [Control X] | μ opioid R Control X: (μ opioid R [3]) [Control X] | POMC Control X: (POMC [4]) [Control X] | MC-2R Control X: (MC-2R [5]) [Control X] | μ opioid R Control X: (μ opioid receptor) [Control X] | MC-1R Control X: (MC-1R [6]) [Control X] | μ opioid R Control X: (μ opioid R [7]) [Control X] | POMC Control X: (POMC [8]) [Control X] |
| --- | --- | --- | --- | --- | --- | --- | --- | --- | --- |
| C/C=C(/C)C(=O)OC1CC2(C)CCC(C(C)C)C2(O)CCC1(C)O (stereo not drawn) [(Z)-decahydro-6,8a-dihydroxy-1-isopropyl-3a,6-dimethylazulen-5-yl 2-methylbut-2-enoate] | 1.0 | 18.5 | 1.0 | 1 | 1.99 | 1.37 | – | – | – |
| CC1=CC(=O)C2=C(C)CC(OC(=O)Cc3ccccc3)C3C(C)C(=O)OC3C12 (stereo not drawn) [Phenyl-acetic acid 3,6,9-trimethyl-2,7-dioxo-2,3,3a,4,5,7,9a,9b-octahydro-azuleno[4,5-b]furan-4-yl] | 20.0 | 20.0 | 1.0 | 1 | 1.96 | 1.66 | – | – | – |
| Cc1nc(C(=O)O)cc2c1[nH]c1ccccc12 [1 methyl beta carbolin-3-carboxylic acid] | – | – | – | – | – | – | 1.0 | 1.0 | 3.3 |
